Data: patent US10308644B2, “Heterocyclic compounds as immunomodulators” (Incyte Corporation, priority 2016, dated 2019)

The molecules below were run against PD-1/PD-L1 (Homo sapiens (Human), UniProt Q9NZQ7) (assay: PD-1/PD-L1 Homogeneous Time-Resolved Fluorescence (HTRF) Binding Assay). Conditions: recombinant human PD-1 (3 nM) and PD-L1 (10 nM), 25° C., PBS pH 7.4.
How it was run: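 Fc-tagged human PD-1 (25-167, 3 nM) and His-tagged PD-L1 (19-238, 10 nM) preincubated with inhibitor 40 min in PBS pH 7.4, 0.05% Tween-20, 0.1% BSA, 1% DMSO, 25 °C. Binding detected by HTRF (Eu anti-IgG/APC anti-His, 665/620 nm) after 60 min; IC50 from percent control activity.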

Chain of PD-1/PD-L1 (Q9NZQ7 19-238): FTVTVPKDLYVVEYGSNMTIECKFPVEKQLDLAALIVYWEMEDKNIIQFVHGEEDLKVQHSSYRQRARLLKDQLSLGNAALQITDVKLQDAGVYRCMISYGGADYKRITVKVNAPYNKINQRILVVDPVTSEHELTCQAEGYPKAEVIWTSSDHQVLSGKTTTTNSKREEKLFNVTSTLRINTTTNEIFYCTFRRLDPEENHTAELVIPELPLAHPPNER

IC50, ≤ 0.01 µM:
Cc1c(COc2cc(OCc3cncc(C#N)c3)c(CN3CC[C@@H](O)C3)cc2Cl)cccc1-c1cccc(-c2nc3cc(CN4CC[C@@H](C(=O)O)C4)cc(Cl)c3o2)c1C [Example 148, (R)-1-((7-chloro-2-(3′-((2-chloro-5-((5-cyanopyridin-3-yl)methoxy)-4-(((R)-3-hydroxypyrrolidin-1-yl)methyl)phenoxy)methyl)-2,2′-dimethyl-[1,1′-biphenyl]-3-yl)benzo[d]oxazol-5-yl)methyl)pyrrolidine-3-carboxylic acid]
Cc1c(-c2nc3c(o2)CCNC3)cccc1-c1cccc(-c2nc3cc(CN4CC[C@H](C(=O)O)C4)cc(Cl)c3o2)c1C [Example 76, (S)-1-((7-chloro-2-(2,2′-dimethyl-3′-(4,5,6,7-tetrahydrooxazolo[4,5-c]pyridin-2-yl)-[1,1′-biphenyl]-3-yl)benzo[d]oxazol-5-yl)methyl)pyrrolidine-3-carboxylic acid]
Cc1c(Nc2nccc3cc(C4CCCN4)cnc23)cccc1-c1cccc(-c2nc3cc(CN4CC[C@@H](C(=O)O)C4)cc(C#N)c3o2)c1C (single isomer, unassigned) [Example 99]
Cc1c(Nc2nccc3nccnc23)cccc1-c1cccc(-c2nc3cc(CN4CC[C@@H](C(=O)O)C4)cc(Cl)c3o2)c1C [Example 11, (R)-1-((7-chloro-2-(2,2′-dimethyl-3′-(pyrido[4,3-b]pyrazin-5-ylamino)biphenyl-3-yl)benzo[d]oxazol-5-yl)methyl)pyrrolidine-3-carboxylic acid]
Cc1c(-c2nc3cc(CN4CC[C@@H](C(=O)O)C4)cc(Cl)c3o2)cccc1-c1cccc(N2CCC(NC3CC3)CC2)c1Cl [Example 44, (R)-1-((7-chloro-2-(2′-chloro-3′-(4-(cyclopropylamino)piperidin-1-yl)-2-methylbiphenyl-3-yl)benzo[d]oxazol-5-yl)methyl)pyrrolidine-3-carboxylic acid]
Cc1c(-c2nc3cc(CN4CC[C@@H](O)C4)cc(C#N)c3o2)cccc1-c1cccc(-c2nc3c(s2)CN(C(C)C)CC3)c1C [Example 121, (R)-5-((3-hydroxypyrrolidin-1-yl)methyl)-2-(3′-(5-isopropyl-4,5,6,7-tetrahydrothiazolo[5,4-c]pyridin-2-yl)-2,2′-dimethyl-[1,1′-biphenyl]-3-yl)benzo[d]oxazole-7-carbonitrile]
Cc1c(Nc2ncnc3cc(CN4CC[C@@H](O)C4)cnc23)cccc1-c1cccc(-c2nc3cc(CN4CC[C@@H](C(=O)O)C4)cc(C#N)c3o2)c1C [Example 139, (R)-1-((7-cyano-2-(3′-(7-(((R)-3-hydroxypyrrolidin-1-yl)methyl)pyrido[3,2-d]pyrimidin-4-ylamino)-2,2′-dimethylbiphenyl-3-yl)benzo[d]oxazol-5-yl)methyl)pyrrolidine-3-carboxylic acid]
Cc1c(Nc2nccc3cc(CN4CC[C@H](O)C4)cnc23)cccc1-c1cccc(-c2nc3cc(CN4CCC(C(=O)O)CC4)cc(Cl)c3o2)c1C [Example 22, (S)-1-((7-chloro-2-(3′-(3-((3-hydroxypyrrolidin-1-yl)methyl)-1,7-naphthyridin-8-ylamino)-2,2′-dimethylbiphenyl-3-yl)benzo[d]oxazol-5-yl)methyl)piperidine-4-carboxylic acid]
Cc1c(-c2nc3cc(CN4CC[C@@](C)(C(=O)O)C4)cc(C#N)c3o2)cccc1-c1cccc(-c2nc3c(s2)CN(C(=O)CN(C)C(C)C)C3)c1C [Example 217, (R)-1-((7-cyano-2-(3′-(5-(2-(isopropyl(methyl)amino)acetyl)-5,6-dihydro-4H-pyrrolo[3,4-d]thiazol-2-yl)-2,2′-dimethylbiphenyl-3-yl)benzo[d]oxazol-5-yl)methyl)-3-methylpyrrolidine-3-carboxylic acid]
Cc1c(-c2nc3cc(CN4CCCC[C@H]4C(=O)O)cc(Cl)c3o2)cccc1-c1cccc(NC(=O)c2ccc(CNCCO)cn2)c1Cl [Example 1, (S)-1-((7-chloro-2-(2′-chloro-3′-(5-(((2-hydroxyethyl)amino)methyl)picolinamido)-2-methyl-[1,1′-biphenyl]-3-yl)benzo[d]oxazol-5-yl)methyl)piperidine-2-carboxylic acid]
Cc1c(-c2nc3cc(CN4CC[C@H](C(=O)O)C4)cc(Cl)c3o2)cccc1-c1cccc(Nc2nccc3cc(CN4CC[C@H](O)C4)cnc23)c1Cl [Example 32, (S)-1-((7-chloro-2-(2′-chloro-3′-(3-(((S)-3-hydroxypyrrolidin-1-yl)methyl)-1,7-naphthyridin-8-ylamino)-2-methylbiphenyl-3-yl)benzo[d]oxazol-5-yl)methyl)pyrrolidine-3-carboxylic acid]
Cc1c(-c2nc3c(o2)CN(C(=O)CN2CCC2)C3)cccc1-c1cccc(-c2nc3cc(CN4CC[C@@H](C(=O)O)C4)cc(C#N)c3o2)c1C [Example 130, (R)-1-((2-(3′-(5-(2-(azetidin-1-yl)acetyl)-5,6-dihydro-4H-pyrrolo[3,4-d]oxazol-2-yl)-2,2′-dimethyl-[1,1′-biphenyl]-3-yl)-7-cyanobenzo[d]oxazol-5-yl)methyl)pyrrolidine-3-carboxylic acid]
Cc1c(-c2nc3c(o2)CN(C(=O)CN2CC[C@@H](C(=O)O)C2)C3)cccc1-c1cccc(-c2nc3cc(CN4CC[C@@H](O)C4)cc(C#N)c3o2)c1C [Example 132, (R)-1-(2-(2-(3′-(7-cyano-5-(((R)-3-hydroxypyrrolidin-1-yl)methyl)benzo[d]oxazol-2-yl)-2,2′-dimethyl-[1,1′-biphenyl]-3-yl)-4,6-dihydro-5H-pyrrolo[3,4-d]oxazol-5-yl)-2-oxoethyl)pyrrolidine-3-carboxylic acid]
Cc1c(-c2nc3cc(CN4CC[C@@](C)(C(=O)O)C4)cc(C#N)c3o2)cccc1-c1cccc(Nc2nccc3cc(CN4CC[C@@H](O)C4)cnc23)c1Cl [Example 187, (R)-1-((2-(2′-chloro-3′-(3-(((R)-3-hydroxypyrrolidin-1-yl)methyl)-1,7-naphthyridin-8-ylamino)-2-methylbiphenyl-3-yl)-7-cyanobenzo[d]oxazol-5-yl)methyl)-3-methylpyrrolidine-3-carboxylic acid]
CC(=O)NCCNCc1cc(C#N)c2oc(-c3cccc(-c4cccc(-c5nc6c(s5)CN(C(C)C)CC6)c4C)c3C)nc2c1 [Example 118, N-(2-(((7-cyano-2-(3′-(5-isopropyl-4,5,6,7-tetrahydrothiazolo[5,4-c]pyridin-2-yl)-2,2′-dimethyl-[1,1′-biphenyl]-3-yl)benzo[d]oxazol-5-yl)methyl)amino)ethyl)acetamide]
Cc1c(-c2nc3c(o2)CN(C(=O)CN(C)CCO)C3)cccc1-c1cccc(-c2nc3cc(CN4CC[C@@](C)(C(=O)O)C4)cc(C#N)c3o2)c1C [Example 252, (R)-1-((7-cyano-2-(3′-(5-(N-(2-hydroxyethyl)-N-methylglycyl)-5,6-dihydro-4H-pyrrolo[3,4-d]oxazol-2 yl)-2,2'-dimethyl-[1,1′-biphenyl]-3-yl)benzo[d]oxazol-5-yl)methyl)-3-methylpyrrolidine-3-carboxylic acid]
Cc1nc(CN2CC[C@H](O)C2)cnc1OCc1cccc(-c2cccc(-c3nc4cc(CN5CCC(C(=O)O)C5)cc(Cl)c4o3)c2C)c1Cl (stereo partly drawn) [Example 153, 1-((7-chloro-2-(2′-chloro-3′-((5-(((S)-3-hydroxypyrrolidin-1-yl)methyl)-3-methylpyrazin-2-yloxy)methyl)-2-methylbiphenyl-3-yl)benzo[d]oxazol-5-yl)methyl)pyrrolidine-3-carboxylic acid]
Cc1c(-c2nc3cc(CN4CC[C@@H](C(=O)O)C4)cc(C#N)c3o2)cccc1-c1cccc(Nc2nccc3nccnc23)c1Cl [Example 14, (R)-1-((2-(2′-chloro-2-methyl-3′-(pyrido[4,3-b]pyrazin-5-ylamino)biphenyl-3-yl)-7-cyanobenzo[d]oxazol-5-yl)methyl)pyrrolidine-3-carboxylic acid]
Cc1c(-c2nc3c(s2)CNCC3)cccc1-c1cccc(-c2nc3cc(CN4CC[C@@H](C(=O)O)C4)cc(C#N)c3o2)c1Cl [Example 69, (R)-1-((2-(2-chloro-2′-methyl-3′-(4,5,6,7-tetrahydrothiazolo[5,4-c]pyridin-2-yl)-[1,1′-biphenyl]-3-yl)-7-cyanobenzo[d]oxazol-5-yl)methyl)pyrrolidine-3-carboxylic acid]
Cc1c(Nc2nccn3c(CN4CC[C@H](O)C4)cnc23)cccc1-c1cccc(-c2nc3cc(CN4CC[C@H](C(=O)O)C4)cc(C#N)c3o2)c1C [Example 152, (S)-1-((7-cyano-2-(3′-(3-(((S)-3-hydroxypyrrolidin-1-yl)methyl)imidazo[1,2-a]pyrazin-8-ylamino)-2,2′-dimethylbiphenyl-3-yl)benzo[d]oxazol-5-yl)methyl)pyrrolidine-3-carboxylic acid]
CCN(CCO)C1CCN(c2cccc(-c3cccc(-c4nc5cc(CN6CC[C@@H](C(=O)O)C6)cc(C#N)c5o4)c3C)c2Cl)CC1 [Example 48, (R)-1-((2-(2′-chloro-3′-(4-(ethyl(2-hydroxyethyl)amino)piperidin-1-yl)-2-methylbiphenyl-3-yl)-7-cyanobenzo[d]oxazol-5-yl)methyl)pyrrolidine-3-carboxylic acid]
Cc1c(-c2nc3cc(CN4CC[C@@H](C(=O)O)C4)cc(C#N)c3o2)cccc1-c1cccc(-c2nc3c(s2)CN(C(=O)CCN(C)C)C3)c1C [Example 106, (R)-1-((7-cyano-2-(3′-(5-(3-(dimethylamino)propanoyl)-5,6-dihydro-4H-pyrrolo[3,4-d]thiazol-2-yl)-2,2′-dimethylbiphenyl-3-yl)benzo[d]oxazol-5-yl)methyl)pyrrolidine-3-carboxylic acid]
